{
  "source": "ChEMBL document CHEMBL1122966",
  "about": "“Compactin (ML-236B) and related compounds as potential cholesterol-lowering agents that inhibit HMG-CoA reductase” (J Med Chem, 1985)",
  "key": {"[1]": {"biological_target": "T1, 3-hydroxy-3-methylglutaryl-coenzyme A reductase (Rattus norvegicus, UniProt P51639)", "T1 sequence (P51639 whole entry)": "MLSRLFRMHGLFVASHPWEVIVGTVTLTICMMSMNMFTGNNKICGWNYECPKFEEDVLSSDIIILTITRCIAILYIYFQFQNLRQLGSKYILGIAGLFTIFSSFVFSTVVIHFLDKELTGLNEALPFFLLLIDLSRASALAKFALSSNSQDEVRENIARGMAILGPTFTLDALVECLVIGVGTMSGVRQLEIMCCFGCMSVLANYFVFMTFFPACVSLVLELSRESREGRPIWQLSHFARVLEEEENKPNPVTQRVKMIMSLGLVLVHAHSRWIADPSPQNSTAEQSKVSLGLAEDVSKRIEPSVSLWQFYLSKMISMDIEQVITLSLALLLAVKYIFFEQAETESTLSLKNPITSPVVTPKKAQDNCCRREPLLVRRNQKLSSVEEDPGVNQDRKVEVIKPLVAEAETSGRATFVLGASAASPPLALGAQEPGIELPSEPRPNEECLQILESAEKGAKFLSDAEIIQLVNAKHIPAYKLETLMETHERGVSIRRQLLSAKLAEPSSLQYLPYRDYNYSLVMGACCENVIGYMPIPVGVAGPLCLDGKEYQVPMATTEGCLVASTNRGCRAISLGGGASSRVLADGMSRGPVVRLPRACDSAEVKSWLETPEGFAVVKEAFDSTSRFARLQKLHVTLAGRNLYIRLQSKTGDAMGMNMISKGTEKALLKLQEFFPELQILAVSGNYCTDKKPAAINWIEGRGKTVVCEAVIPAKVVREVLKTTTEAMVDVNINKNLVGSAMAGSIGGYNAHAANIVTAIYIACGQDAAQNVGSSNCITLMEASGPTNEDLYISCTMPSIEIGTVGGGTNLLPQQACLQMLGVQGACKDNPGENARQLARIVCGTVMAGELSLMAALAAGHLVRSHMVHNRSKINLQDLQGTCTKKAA", "test": "Binding affinity was determined against purified rat liver HMG-coA reductase enzyme"}, "Homo sapiens [2]": {"species": "Homo sapiens", "test": "Ability to inhibit cholesterol biosynthesis from [14C]acetate in cultured human skin fibroblasts at the concentration of 1 uM", "format": "functional"}, "Homo sapiens [3]": {"species": "Homo sapiens", "test": "Ability to inhibit cholesterol biosynthesis from [14C]acetate in cultured human skin fibroblasts at the concentration of 10 uM", "format": "functional"}, "Homo sapiens [4]": {"species": "Homo sapiens", "test": "Ability to inhibit cholesterol biosynthesis from [14C]acetate in cultured human skin fibroblasts at the concentration of 10 nM", "format": "functional"}, "Homo sapiens [5]": {"species": "Homo sapiens", "test": "Ability to inhibit cholesterol biosynthesis from [14C]acetate in cultured human skin fibroblasts at the concentration of 100 nM", "format": "functional"}, "Homo sapiens [6]": {"species": "Homo sapiens", "test": "Ability to inhibit cholesterol biosynthesis from [14C]acetate in cultured human skin fibroblasts at the concentration of 1 nM", "format": "functional"}},
  "data": [
    {"compound": "CC[C@H](C)C(=O)O[C@H]1CCC=C2C=C[C@H](C)[C@H](CC[C@@H]3C[C@@H](O)CC(=O)O3)[C@H]21", "note": "[MEVASTATIN]", "values": [
      {"measurement": "Ki", "setting": "[1]", "value": "~1", "unit": "nM"},
      {"measurement": "inhibition at 1 µM", "setting": "Homo sapiens [2]", "value": 95, "unit": "%"},
      {"measurement": "inhibition at 10 µM", "setting": "Homo sapiens [3]", "value": 100, "unit": "%"},
      {"measurement": "inhibition at 0.01 µM", "setting": "Homo sapiens [4]", "value": 80, "unit": "%"},
      {"measurement": "inhibition at 0.1 µM", "setting": "Homo sapiens [5]", "value": 90, "unit": "%"},
      {"measurement": "inhibition at 0.001 µM", "setting": "Homo sapiens [6]", "value": 50, "unit": "%"}
    ]}
  ]
}
